In the supplement of paper PMC9912026:

Test system: A375_aEGFR2
Experiment: pERK immunofluorescence normalised to no-drug reference (=1); higher = more ERK phosphorylation (less pathway inhibition)
Details: drug treatment time 24 h, EGF time 8 h
Protocol: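 A375 CRISPRa-EGFR (A375_aEGFR2) or HT29 cells were treated with two-drug dose combinations (vemurafenib, LY3009120, cobimetinib) for 24 h, then stimulated with EGF (100 ng/mL) or mock medium for 8 h. pERK (T202/Y204) was measured by immunofluorescence as the cytosolic population average, normalised to an untreated no-drug reference of the block (=1). Averages of 2 technical replicates. A375 in 5% FBS, HT29 in 10% FBS.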

CCCS(=O)(=O)Nc1ccc(F)c(C(=O)c2c[nH]c3ncc(-c4ccc(Cl)cc4)cc23)c1F [Vemurafenib] + CNc1ncc2cc(-c3cc(NC(=O)NCCC(C)(C)C)c(F)cc3C)c(C)nc2n1 [LY3009120]
pERK immunofluorescence normalised
Details	EGF 0 ng/mL	EGF 100 ng/mL
drug A concentration 0 µM, drug B concentration 0.0001 µM	1.02	1.04
drug A concentration 0 µM, drug B concentration 0.000316228 µM	1.03	1.07
drug A concentration 0 µM, drug B concentration 0.001 µM	1.06	1.02
drug A concentration 0 µM, drug B concentration 0.00316228 µM	0.865	0.989
drug A concentration 0 µM, drug B concentration 0.01 µM	0.696	0.807
drug A concentration 0 µM, drug B concentration 0.0316228 µM	0.376	0.565
drug A concentration 0 µM, drug B concentration 0.1 µM	0.193	0.368
drug A concentration 0 µM, drug B concentration 0.316228 µM	0.157	0.264
drug A concentration 0 µM, drug B concentration 1 µM	0.149	0.175
drug A concentration 0 µM, drug B concentration 3.16228 µM	0.153	0.149
drug A concentration 0.000316228 µM, drug B concentration 0 µM	1.03	0.99
drug A concentration 0.000316228 µM, drug B concentration 0.0001 µM	1.03	0.996
drug A concentration 0.000316228 µM, drug B concentration 0.000316228 µM	1.03	1.02
drug A concentration 0.000316228 µM, drug B concentration 0.001 µM	0.876	0.959
drug A concentration 0.000316228 µM, drug B concentration 0.00316228 µM	0.793	0.849
drug A concentration 0.000316228 µM, drug B concentration 0.01 µM	0.488	0.648
drug A concentration 0.000316228 µM, drug B concentration 0.0316228 µM	0.263	0.454
drug A concentration 0.000316228 µM, drug B concentration 0.1 µM	0.168	0.312
drug A concentration 0.000316228 µM, drug B concentration 0.316228 µM	0.151	0.206
drug A concentration 0.000316228 µM, drug B concentration 1 µM	0.15	0.155
drug A concentration 0.000316228 µM, drug B concentration 3.16228 µM	0.15	0.14
drug A concentration 0.001 µM, drug B concentration 0 µM	1	1.02
drug A concentration 0.001 µM, drug B concentration 0.0001 µM	1.01	0.999
drug A concentration 0.001 µM, drug B concentration 0.000316228 µM	0.997	0.982
drug A concentration 0.001 µM, drug B concentration 0.001 µM	0.96	0.953
drug A concentration 0.001 µM, drug B concentration 0.00316228 µM	0.806	0.892
drug A concentration 0.001 µM, drug B concentration 0.01 µM	0.501	0.635
drug A concentration 0.001 µM, drug B concentration 0.0316228 µM	0.278	0.468
drug A concentration 0.001 µM, drug B concentration 0.1 µM	0.168	0.331
drug A concentration 0.001 µM, drug B concentration 0.316228 µM	0.148	0.215
drug A concentration 0.001 µM, drug B concentration 1 µM	0.15	0.156
drug A concentration 0.001 µM, drug B concentration 3.16228 µM	0.149	0.134
drug A concentration 0.00316228 µM, drug B concentration 0 µM	0.995	0.977
drug A concentration 0.00316228 µM, drug B concentration 0.0001 µM	1.05	0.996
drug A concentration 0.00316228 µM, drug B concentration 0.000316228 µM	0.961	1.04
drug A concentration 0.00316228 µM, drug B concentration 0.001 µM	0.922	0.953
drug A concentration 0.00316228 µM, drug B concentration 0.00316228 µM	0.781	0.836
drug A concentration 0.00316228 µM, drug B concentration 0.01 µM	0.534	0.641
drug A concentration 0.00316228 µM, drug B concentration 0.0316228 µM	0.27	0.456
drug A concentration 0.00316228 µM, drug B concentration 0.1 µM	0.167	0.305
drug A concentration 0.00316228 µM, drug B concentration 0.316228 µM	0.145	0.212
drug A concentration 0.00316228 µM, drug B concentration 1 µM	0.15	0.154
drug A concentration 0.00316228 µM, drug B concentration 3.16228 µM	0.149	0.139
drug A concentration 0.01 µM, drug B concentration 0 µM	0.897	0.969
drug A concentration 0.01 µM, drug B concentration 0.0001 µM	0.912	0.967
drug A concentration 0.01 µM, drug B concentration 0.000316228 µM	0.891	0.96
drug A concentration 0.01 µM, drug B concentration 0.001 µM	0.889	0.91
drug A concentration 0.01 µM, drug B concentration 0.00316228 µM	0.732	0.789
drug A concentration 0.01 µM, drug B concentration 0.01 µM	0.471	0.625
drug A concentration 0.01 µM, drug B concentration 0.0316228 µM	0.28	0.469
drug A concentration 0.01 µM, drug B concentration 0.1 µM	0.165	0.311
drug A concentration 0.01 µM, drug B concentration 0.316228 µM	0.15	0.205
drug A concentration 0.01 µM, drug B concentration 1 µM	0.153	0.157
drug A concentration 0.01 µM, drug B concentration 3.16228 µM	0.148	0.138
drug A concentration 0.0316228 µM, drug B concentration 0 µM	0.695	0.896
drug A concentration 0.0316228 µM, drug B concentration 0.0001 µM	0.759	0.9
drug A concentration 0.0316228 µM, drug B concentration 0.000316228 µM	0.727	0.935
drug A concentration 0.0316228 µM, drug B concentration 0.001 µM	0.745	0.852
drug A concentration 0.0316228 µM, drug B concentration 0.00316228 µM	0.669	0.768
drug A concentration 0.0316228 µM, drug B concentration 0.01 µM	0.457	0.635
drug A concentration 0.0316228 µM, drug B concentration 0.0316228 µM	0.251	0.454
drug A concentration 0.0316228 µM, drug B concentration 0.1 µM	0.166	0.319
drug A concentration 0.0316228 µM, drug B concentration 0.316228 µM	0.146	0.216
drug A concentration 0.0316228 µM, drug B concentration 1 µM	0.152	0.156
drug A concentration 0.0316228 µM, drug B concentration 3.16228 µM	0.15	0.138
drug A concentration 0.1 µM, drug B concentration 0 µM	0.453	0.761
drug A concentration 0.1 µM, drug B concentration 0.0001 µM	0.436	0.789
drug A concentration 0.1 µM, drug B concentration 0.000316228 µM	0.465	0.802
drug A concentration 0.1 µM, drug B concentration 0.001 µM	0.482	0.771
drug A concentration 0.1 µM, drug B concentration 0.00316228 µM	0.416	0.719
drug A concentration 0.1 µM, drug B concentration 0.01 µM	0.321	0.61
drug A concentration 0.1 µM, drug B concentration 0.0316228 µM	0.206	0.45
drug A concentration 0.1 µM, drug B concentration 0.1 µM	0.161	0.329
drug A concentration 0.1 µM, drug B concentration 0.316228 µM	0.152	0.229
drug A concentration 0.1 µM, drug B concentration 1 µM	0.151	0.161
drug A concentration 0.1 µM, drug B concentration 3.16228 µM	0.147	0.137
drug A concentration 0.316228 µM, drug B concentration 0 µM	0.252	0.767
drug A concentration 0.316228 µM, drug B concentration 0.0001 µM	0.262	0.764
drug A concentration 0.316228 µM, drug B concentration 0.000316228 µM	0.264	0.746
drug A concentration 0.316228 µM, drug B concentration 0.001 µM	0.292	0.721
drug A concentration 0.316228 µM, drug B concentration 0.00316228 µM	0.295	0.653
drug A concentration 0.316228 µM, drug B concentration 0.01 µM	0.266	0.579
drug A concentration 0.316228 µM, drug B concentration 0.0316228 µM	0.203	0.431
drug A concentration 0.316228 µM, drug B concentration 0.1 µM	0.158	0.293
drug A concentration 0.316228 µM, drug B concentration 0.316228 µM	0.146	0.19
drug A concentration 0.316228 µM, drug B concentration 1 µM	0.149	0.149
drug A concentration 0.316228 µM, drug B concentration 3.16228 µM	0.146	0.137
drug A concentration 1 µM, drug B concentration 0 µM	0.192	0.784
drug A concentration 1 µM, drug B concentration 0.0001 µM	0.185	0.755
drug A concentration 1 µM, drug B concentration 0.000316228 µM	0.191	0.728
drug A concentration 1 µM, drug B concentration 0.001 µM	0.204	0.725
drug A concentration 1 µM, drug B concentration 0.00316228 µM	0.211	0.678
drug A concentration 1 µM, drug B concentration 0.01 µM	0.201	0.598
drug A concentration 1 µM, drug B concentration 0.0316228 µM	0.184	0.467
drug A concentration 1 µM, drug B concentration 0.1 µM	0.159	0.308
drug A concentration 1 µM, drug B concentration 0.316228 µM	0.152	0.195
drug A concentration 1 µM, drug B concentration 1 µM	0.149	0.149
drug A concentration 1 µM, drug B concentration 3.16228 µM	0.152	0.137
drug A concentration 3.16228 µM, drug B concentration 0 µM	0.176	0.761
drug A concentration 3.16228 µM, drug B concentration 0.0001 µM	0.165	0.663
drug A concentration 3.16228 µM, drug B concentration 0.000316228 µM	0.172	0.678
drug A concentration 3.16228 µM, drug B concentration 0.001 µM	0.168	0.701
drug A concentration 3.16228 µM, drug B concentration 0.00316228 µM	0.171	0.649
drug A concentration 3.16228 µM, drug B concentration 0.01 µM	0.169	0.625
drug A concentration 3.16228 µM, drug B concentration 0.0316228 µM	0.165	0.508
drug A concentration 3.16228 µM, drug B concentration 0.1 µM	0.156	0.337
drug A concentration 3.16228 µM, drug B concentration 0.316228 µM	0.145	0.197
drug A concentration 3.16228 µM, drug B concentration 1 µM	0.147	0.15
drug A concentration 3.16228 µM, drug B concentration 3.16228 µM	0.15	0.156
drug A concentration 10 µM, drug B concentration 0 µM	0.164	0.668
drug A concentration 10 µM, drug B concentration 0.0001 µM	0.172	0.644
drug A concentration 10 µM, drug B concentration 0.000316228 µM	0.166	0.629
drug A concentration 10 µM, drug B concentration 0.001 µM	0.167	0.651
drug A concentration 10 µM, drug B concentration 0.00316228 µM	0.171	0.663
drug A concentration 10 µM, drug B concentration 0.01 µM	0.177	0.628
drug A concentration 10 µM, drug B concentration 0.0316228 µM	0.172	0.553
drug A concentration 10 µM, drug B concentration 0.1 µM	0.165	0.335
drug A concentration 10 µM, drug B concentration 0.316228 µM	0.166	0.228
drug A concentration 10 µM, drug B concentration 1 µM	0.157	0.177
drug A concentration 10 µM, drug B concentration 3.16228 µM	0.162	0.153
